# Assay results from patent US11759462B2, “Spirocyclic compounds as tryptophan hydroxylase inhibitors” (priority 2013, dated 2023).
# Molecular target: T1, Recombinant human TPH1 (MBP tagged) (Homo sapiens, UniProt P17752)
# T1 construct: cloning full length human TPH1 cDNA in to a bacterial pMAL-c5E expression vector; made in house; host or cells: E. coli BL21 (DE3)
# T1 sequence (P17752 1-444): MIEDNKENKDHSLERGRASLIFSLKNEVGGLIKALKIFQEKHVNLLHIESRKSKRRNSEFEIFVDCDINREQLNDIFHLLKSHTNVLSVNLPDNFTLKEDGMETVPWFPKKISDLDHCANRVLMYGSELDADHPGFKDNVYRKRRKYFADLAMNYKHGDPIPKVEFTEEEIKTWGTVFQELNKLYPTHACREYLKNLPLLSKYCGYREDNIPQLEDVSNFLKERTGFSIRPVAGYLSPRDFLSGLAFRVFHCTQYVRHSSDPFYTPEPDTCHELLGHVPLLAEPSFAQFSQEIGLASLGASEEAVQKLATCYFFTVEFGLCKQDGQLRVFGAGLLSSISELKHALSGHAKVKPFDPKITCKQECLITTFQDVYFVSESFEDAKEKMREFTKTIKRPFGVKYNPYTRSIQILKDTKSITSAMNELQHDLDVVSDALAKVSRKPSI
# Assay: TPH1 in vitro inhibition assay (kinetic fluorescence)
# Assay type: biochemical
# Conditions: TPH1 Range (TPH1 inhibition IC50)
# Summary of the method: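 Final mix: 15 nM MBP-TPH1, 30 μM Trp, 36 μM 6-methyltetrahydropterin, 25 μM ferrous ammonium sulfate, 50 mM MES pH 7.1, 1% DMSO, room temperature.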
row,SMILES,IC50
1,"Cc1ccn(-c2cc(-c3ccc(C)c(C)c3)ccc2[C@@H](Oc2cc(N3CCC4(CC3)CN[C@@H](C(=O)O)C4)nc(N)n2)C(F)(F)F)n1 [Example 54m, (R)-8-(2-amino-6-((R)-1-(3′,4′-dimethyl-3-(3-methyl-1H-pyrazol-1-yl)-[1,1′-biphenyl]-4-yl)-2,2,2-trifluoroethoxy)pyrimidin-4-yl)-2,8-diazaspiro[4.5]decane-3-carboxylic acid]",300 to 3000 nM
2,"Nc1nc(O[C@H](c2ccc(-c3ccc4[nH]ncc4c3)cc2)C(F)(F)F)cc(N2CCC3(CC2)CN[C@H](C(=O)O)C3)n1 [Example 55w, (S)-8-(6-((R)-1-(4-(1H-indazol-5-yl)phenyl)-2,2,2-trifluoroethoxy)-2-aminopyrimidin-4-yl)-2,8-diazaspiro[4.5]decane-3-carboxylic acid]",< 50 nM
3,"Nc1nc(O[C@H](c2ccc(Cl)cc2-c2cccnc2)C(F)(F)F)cc(N2CCC3(CC2)CN[C@H](C(=O)O)C3)n1 [Example 34bo, (S)-8-(2-amino-6-((R)-1-(4-chloro-2-(pyridin-3-yl)phenyl)-2,2,2-trifluoroethoxy)pyrimidin-4-yl)-2,8-diazaspiro[4.5]decane-3-carboxylic acid]",50 to 300 nM

# Same assay, conditions: read-out: TPH1 Range (TPH1 inhibition IC50)
row,SMILES,IC50
1,"Cc1ccc(-c2ccc([C@@H](Oc3cc(N4CCC5(CC4)CN[C@H](C(=O)O)C5)nc(N)n3)C(F)(F)F)cc2)cn1 [Example 55bo, (S)-8-(2-amino-6-((R)-2,2,2-trifluoro-1-(4-(6-methylpyridin-3-yl)phenyl)ethoxy)pyrimidin-4-yl)-2,8-diazaspiro[4.5]decane-3-carboxylic acid]",50 to 300 nM
2,"CCCOc1ccc(-c2ccc([C@@H](Oc3cc(N4CCC5(CC4)CN[C@H](C(=O)O)C5)nc(N)n3)C(F)(F)F)cc2)cc1F [Example 55dm, (S)-8-(2-amino-6-((R)-2,2,2-trifluoro-1-(3′-fluoro-4′-propoxy-[1,1′-biphenyl]-4-yl)ethoxy)pyrimidin-4-yl)-2,8-diazaspiro[4.5]decane-3-carboxylic acid]",50 to 300 nM
3,"COc1ccc([C@@H](Oc2cc(N3CCC4(CC3)CN[C@H](C(=O)O)C4)nc(N)n2)C(F)(F)F)c(-n2ccc(C)n2)c1 [Example 10l, (S)-8-(2-amino-6-((R)-2,2,2-trifluoro-1-(4-methoxy-2-(3-methyl-1H-pyrazol-1-yl)phenyl)ethoxy)pyrimidin-4-yl)-2,8-diazaspiro[4.5]decane-3-carboxylic acid]",50 to 300 nM
4,"Cc1ccn(-c2cc(-c3cc(F)c(F)c(F)c3)ccc2[C@@H](Oc2cc(N3CCC4(CC3)CN[C@H](C(=O)O)C4)nc(N)n2)C(F)(F)F)n1 [Example 1bo, (S)-8-(2-amino-6-((R)-2,2,2-trifluoro-1-(3′,4′,5′-trifluoro-3-(3-methyl-1H-pyrazol-1-yl)-[1,1′-biphenyl]-4-yl)ethoxy)pyrimidin-4-yl)-2,8-diazaspiro[4.5]decane-3-carboxylic acid]",50 to 300 nM
5,"Nc1nc(O[C@H](c2ccc(Cl)cc2-c2ccc(C(F)(F)F)c(Cl)c2)C(F)(F)F)cc(N2CCC3(CC2)CN[C@H](C(=O)O)C3)n1 [Example 34ax, (S)-8-(2-amino-6-((R)-1-(3′,5-dichloro-4′-(trifluoromethyl)-[1,1′-biphenyl]-2-yl)-2,2,2-trifluoroethoxy)pyrimidin-4-yl)-2,8-diazaspiro[4.5]decane-3-carboxylic acid]",50 to 300 nM
6,"Nc1nc(O[C@H](c2ccc(Cl)cc2-c2cccc(C(=O)O)c2)C(F)(F)F)cc(N2CCC3(CC2)CN[C@H](C(=O)O)C3)n1 [Example 34ab, (S)-8-(2-amino-6-((R)-1-(3′-carboxy-5-chloro-[1,1′-biphenyl]-2-yl)-2,2,2-trifluoroethoxy)pyrimidin-4-yl)-2,8-diazaspiro[4.5]decane-3-carboxylic acid]",300 to 3000 nM
7,"COc1ccc(F)cc1-c1ccc([C@@H](Oc2cc(N3CCC4(CC3)CN[C@H](C(=O)O)C4)nc(N)n2)C(F)(F)F)cc1 [Example 55da, (S)-8-(2-amino-6-((R)-2,2,2-trifluoro-1-(5′-fluoro-2′-methoxy-[1,1′-biphenyl]-4-yl)ethoxy)pyrimidin-4-yl)-2,8-diazaspiro[4.5]decane-3-carboxylic acid]",300 to 3000 nM
8,"CCOc1ccc(-c2ccc([C@@H](Oc3cc(N4CCC5(CC4)CN[C@H](C(=O)O)C5)nc(N)n3)C(F)(F)F)c(-n3ccc(C)n3)c2)cc1 [Example 1q, (S)-8-(2-amino-6-((R)-1-(4′-ethoxy-3-(3-methyl-1H-pyrazol-1-yl)-[1,1′-biphenyl]-4-yl)-2,2,2-trifluoroethoxy)pyrimidin-4-yl)-2,8-diazaspiro[4.5]decane-3-carboxylic acid]",< 50 nM
9,"Cc1ccn(-c2cc(C#N)ccc2[C@@H](Oc2cc(N3CCC4(CC3)CN[C@H](C(=O)O)C4)nc(N)n2)C(F)(F)F)n1 [Example 14, (S)-8-(2-amino-6-((R)-1-(4-cyano-2-(3-methyl-H-pyrazol-1-yl)phenyl)-2,2,2-trifluoroethoxy)pyrimidin-4-yl)-2,8-diazaspiro[4.5]decane-3-carboxylic acid]",< 50 nM
10,"Cc1ccn(-c2cc(-c3ccc(CO)c(C)c3)ccc2[C@@H](Oc2cc(N3CCC4(CC3)CN[C@H](C(=O)O)C4)nc(N)n2)C(F)(F)F)n1 [Example 1cr, (S)-8-(2-amino-6-((R)-2,2,2-trifluoro-1-(4′-(hydroxymethyl)-3′-methyl-3-(3-methyl-1H-pyrazol-1-yl)-[1,1′-biphenyl]-4-yl)ethoxy)pyrimidin-4-yl)-2,8-diazaspiro[4.5]decane-3-carboxylic acid]",< 50 nM
11,"Nc1nc(O[C@H](c2ccc(Cl)cc2-c2cccc(C(=O)N3CCOCC3)c2)C(F)(F)F)cc(N2CCC3(CC2)CN[C@H](C(=O)O)C3)n1 [Example 34cg, (S)-8-(2-amino-6-((R)-1-(5-chloro-3′-(morpholine-4-carbonyl)-[1,1′-biphenyl]-2-yl)-2,2,2-trifluoroethoxy)pyrimidin-4-yl)-2,8-diazaspiro[4.5]decane-3-carboxylic acid]",50 to 300 nM
12,"Cc1ccn(-c2cc(-c3cccc(OC(C)C)c3)ccc2[C@@H](Oc2cc(N3CCC4(CC3)CN[C@H](C(=O)O)C4)nc(N)n2)C(F)(F)F)n1 [Example 1bc, (S)-8-(2-amino-6-((R)-2,2,2-trifluoro-1-(3′-isopropoxy-3-(3-methyl-1H-pyrazol-1-yl)-[1,1′-biphenyl]-4-yl)ethoxy)pyrimidin-4-yl)-2,8-diazaspiro[4.5]decane-3-carboxylic acid]",< 50 nM
13,"COc1ccc(-c2ccc([C@@H](Oc3cc(N4CCC5(CC4)CN[C@H](C(=O)O)C5)nc(C)n3)C(F)(F)F)c(-n3ccc(C)n3)c2)cn1 [Example 29f, (S)-8-(2-methyl-6-((R)-2,2,2-trifluoro-1-(4-(6-methoxypyridin-3-yl)-2-(3-methyl-1H-pyrazol-1-yl)phenyl)ethoxy)pyrimidin-4-yl)-2,8-diazaspiro[4.5]decane-3-carboxylic acid]",< 50 nM
14,"Nc1nc(O[C@H](c2ccc(-c3ccc(C(=O)O)c(O)c3)cc2)C(F)(F)F)cc(N2CCC3(CC2)CN[C@H](C(=O)O)C3)n1 [Example 55ag, (S)-8-(2-amino-6-((R)-1-(4′-carboxy-3′-hydroxy-[1,1′-biphenyl]-4-yl)-2,2,2-trifluoroethoxy)pyrimidin-4-yl)-2,8-diazaspiro[4.5]decane-3-carboxylic acid]",50 to 300 nM
15,"CN1CCN(C(=O)c2cccc(-c3cc(Cl)ccc3[C@@H](Oc3cc(N4CCC5(CC4)CN[C@H](C(=O)O)C5)nc(N)n3)C(F)(F)F)c2)CC1 [Example 34ch, (S)-8-(2-amino-6-((R)-1-(5-chloro-3′-(4-methylpiperazine-1-carbonyl)-[1,1′-biphenyl]-2-yl)-2,2,2-trifluoroethoxy)pyrimidin-4-yl)-2,8-diazaspiro[4.5]decane-3-carboxylic acid]",< 50 nM
16,"CS(=O)(=O)c1cccc(-c2cc(-c3ccc4ncccc4c3)ccc2[C@@H](Oc2cc(N3CCC4(CC3)CN[C@H](C(=O)O)C4)nc(N)n2)C(F)(F)F)c1 [Example 52b, (S)-8-(2-amino-6-((R)-2,2,2-trifluoro-1-(3′-(methylsulfonyl)-5-(quinolin-6-yl)-[1,1′-biphenyl]-2-yl)ethoxy)pyrimidin-4-yl)-2,8-diazaspiro[4.5]decane-3-carboxylic acid]",< 50 nM
17,"COc1ccc(F)c(-c2ccc([C@@H](Oc3cc(N4CCC5(CC4)CN[C@H](C(=O)O)C5)nc(N)n3)C(F)(F)F)cc2)c1 [Example 55bn, (S)-8-(2-amino-6-((R)-2,2,2-trifluoro-1-(2′-fluoro-5′-methoxy-[1,1′-biphenyl]-4-yl)ethoxy)pyrimidin-4-yl)-2,8-diazaspiro[4.5]decane-3-carboxylic acid]",3000 to 10000 nM
18,"Nc1nc(NCc2c(Oc3ccccc3)cccc2N2CCCCC2)cc(N2CCC3(CC2)CN[C@H](C(=O)O)C3)n1 [Example 41b, (S)-8-(2-amino-6-((2-phenoxy-6-(piperidin-1-yl)benzyl)amino)pyrimidin-4-yl)-2,8-diazaspiro[4.5]decane-3-carboxylic acid]",300 to 3000 nM
19,"COc1cc(-c2ccc([C@@H](Oc3cc(N4CCC5(CC4)CN[C@H](C(=O)O)C5)nc(C)n3)C(F)(F)F)c(-n3ccc(C)n3)c2)ccn1 [Example 29a, (S)-8-(2-methyl-6-((R)-2,2,2-trifluoro-1-(4-(2-methoxypyridin-4-yl)-2-(3-methyl-1H-pyrazol-1-yl)phenyl)ethoxy)pyrimidin-4-yl)-2,8-diazaspiro[4.5]decane-3-carboxylic acid]",< 50 nM
